Test results reported in patent publication US11591323B2, “Muscarinic agonists as non-steroidal and non-opioid analgesics and methods of use thereof” (Barry University, priority 2019, dated 2023).
Entries after “also recorded” stand apart in the source; their conditions may differ. Like-named read-outs stand apart in the source and are kept apart here.

Key:
Assay type in all cases: cell-based
[1] = system: brain cortex (rich in M1); assay: accumulation of IPX in dissipated rat brain cortex; settings: in words
Experimental: (§1) Effects of compounds 6A and 7A were then measured ex vivo in dissipated rat tissues (FIG. 5). Accumulation of IPX was measured in dissipated brain cortex (rich in M1 & M3), submaxillary gland (M1 & M3), and ventral tegmental area (M5). Native tissues express about 10-times less muscarinic receptors than CHO cell lines. Accumulation of cAMP was measured in cerebellum (M2) and striatum (M4).
Rat dissipated tissues: Suspension of dissipated tissues from rat brain cortex, cerebellum, striatum, ventral tegmental area (VTA) and submaxillary glands was prepared as described previously in supplementary methods. Adult 8-weeks old male Wistar rats were scarified by cervical dislocation in accordance with current legislative and guidelines under permission of Czech Ministry of Agriculture 16OZ23113/2017-17214. Tissues were dissected immediately. Submaxillary glands were minced by scissors. Tissues were dispersed by incubation for 15 min at 37° C. in KHB supplemented with trypsin and trituration every 5 min. Large undissipated parts were removed by cell mesh. […]
Measurements of the production of cAMP and inositol phosphates: Levels of second messengers cAMP and inositol phosphates were determined in radiochemical chromatography assays as described previously. […] Samples were applied to alumina columns (1.5 g of alumina per column), washed with 2 ml ammonium acetate (pH=7.0) and eluted from columns with 4 ml ammonium acetate and measured by liquid scintillation spectrometry. […] After separation of water and organic phases, 0.6 ml of water phase was applied to Dowex columns (1.5 g of Dowex per column), washed by 20 ml of 60 mM ammonium formate/5 mM sodium borate buffer and eluted from columns with 4 ml of 1M ammonium formate/0.1 formic acid buffer and measured by liquid scintillation spectrometry.
To exclude the possibility that the observed effects of compounds 6A and 7A are the result of overexpression in the heterologous system, functional response to the compounds was measured ex vivo in dissipated native rat tissues. […] Accumulation of cAMP was measured in M2-rich cerebellum and M4-rich striatum.

[2] = system: cerebellum (M2 rich); assay: forskolin-stimulated cAMP in dissipated rat cerebellum; settings: in words
Experimental: as §1
(§2) Rat dissipated tissues: Suspension of dissipated tissues from rat brain cortex, cerebellum, striatum, ventral tegmental area (VTA) and submaxillary glands was prepared as described previously in supplementary methods. Adult 8-weeks old male Wistar rats were scarified by cervical dislocation in accordance with current legislative and guidelines under permission of Czech Ministry of Agriculture 16OZ23113/2017-17214. Tissues were dissected immediately. Submaxillary glands were minced by scissors. Tissues were dispersed by incubation for 15 min at 37° C. in KHB supplemented with trypsin and trituration every 5 min. Large undissipated parts were removed by cell mesh. Then dissipated tissues were centrifuged 3 min at 250×g, re-suspended in KHB and centrifuged again to remove trypsin. Suspension of dissipated tissues was used immediately in experiments. Two submaxillary glands or about 400 mg of brain tissue was used a 96-sample assay.
(§3) Measurements of the production of cAMP and inositol phosphates: Levels of second messengers cAMP and inositol phosphates were determined in radiochemical chromatography assays as described previously. To determine level of cAMP, cells in suspension were pre-incubated for 1 h with 0.4 μM [^3H]adenine, washed, and incubated for 10 min in the presence of isobutylmethylxanthine and 10 μM forskolin. […] Incubation was ended by addition of 0.2 ml of 2.5 M HCl to the samples. Samples were applied to alumina columns (1.5 g of alumina per column), washed with 2 ml ammonium acetate (pH=7.0) and eluted from columns with 4 ml ammonium acetate and measured by liquid scintillation spectrometry. […] For this purpose, new CHO cell lines stably expressing promiscuous G15 G-protein and M2 or M4 receptor were generated by transfection with pCMV/hygro vector and hygromycin selection. To determine the rate of formation of inositol phosphates IPX, suspended cells were pre-incubated with 0.1 μM [^3H]myo-inositol for 60 min, washed, and incubated with 10 mM LiCl for 15 min. […] The incubation was stopped by addition of 0.5 ml of chloroform methanol HCl mixture (2:1:0.1). After separation of water and organic phases, 0.6 ml of water phase was applied to Dowex columns (1.5 g of Dowex per column), washed by 20 ml of 60 mM ammonium formate/5 mM sodium borate buffer and eluted from columns with 4 ml of 1M ammonium formate/0.1 formic acid buffer and measured by liquid scintillation spectrometry.
(§4) To exclude the possibility that the observed effects of compounds 6A and 7A are the result of overexpression in the heterologous system, functional response to the compounds was measured ex vivo in dissipated native rat tissues. […] Accumulation of IPX was measured in brain cortex, submaxillary gland, and ventral tegmental area (VTA) as brain cortex and submaxillary glands are rich in M1 and in M3 receptors, respectively, and VTA is the only region expressing significant amount of M5 receptors. Accumulation of cAMP was measured in M2-rich cerebellum and M4-rich striatum.

[3] = system: striatum (M4 rich); assay: forskolin-stimulated cAMP in dissipated rat striatum; settings: in words
Experimental: as §1, §2, §3, §4

[4] = target: T1, M5 muscarinic receptor (Homo sapiens, UniProt P08912); assay: stimulation of cAMP, M5 CHO cells (M5Gs); set-up: host or cells: CHO cells, stably transfected; settings: for E′MAX / τ / Δlog(τ/KA) / RAi: M5Gs (↑cAMP); for E′MAX / τ: Table 8; for Δlog(τ/KA): Table 8, to carbachol; for RAi: Table 8, relative to carbachol
T1 sequence (P08912 1-532): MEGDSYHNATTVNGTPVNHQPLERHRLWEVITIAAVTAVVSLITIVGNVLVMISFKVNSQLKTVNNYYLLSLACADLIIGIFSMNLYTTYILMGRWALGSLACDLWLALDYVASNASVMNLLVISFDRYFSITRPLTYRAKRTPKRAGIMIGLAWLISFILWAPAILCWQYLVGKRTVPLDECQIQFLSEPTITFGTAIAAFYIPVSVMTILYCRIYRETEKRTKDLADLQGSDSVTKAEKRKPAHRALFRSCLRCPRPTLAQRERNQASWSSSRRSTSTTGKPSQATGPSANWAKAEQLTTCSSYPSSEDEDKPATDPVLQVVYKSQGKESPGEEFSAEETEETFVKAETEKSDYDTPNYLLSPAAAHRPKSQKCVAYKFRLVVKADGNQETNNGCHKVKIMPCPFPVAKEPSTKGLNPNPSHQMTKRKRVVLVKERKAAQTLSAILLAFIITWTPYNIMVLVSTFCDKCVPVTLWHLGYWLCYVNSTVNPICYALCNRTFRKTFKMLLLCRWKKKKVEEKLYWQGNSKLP
Experimental: (§5) To determine level of cAMP, cells in suspension were pre-incubated for 1 h with 0.4 μM [^3H]adenine, washed, and incubated for 10 min in the presence of isobutylmethylxanthine and 10 μM forskolin. […] Incubation was ended by addition of 0.2 ml of 2.5 M HCl to the samples. Samples were applied to alumina columns (1.5 g of alumina per column), washed with 2 ml ammonium acetate (pH=7.0) and eluted from columns with 4 ml ammonium acetate and measured by liquid scintillation spectrometry. […] The incubation was stopped by addition of 0.5 ml of chloroform methanol HCl mixture (2:1:0.1). After separation of water and organic phases, 0.6 ml of water phase was applied to Dowex columns (1.5 g of Dowex per column), washed by 20 ml of 60 mM ammonium formate/5 mM sodium borate buffer and eluted from columns with 4 ml of 1M ammonium formate/0.1 formic acid buffer and measured by liquid scintillation spectrometry.
as §3
(§6) For bi-phasic response, curves were inhibitory and stimulatory phase were fitted separately. Operational Model of Functional Agonism
(§7) [formula] where y is functional response at concentration of tested compound x, EMAX is maximal response of the system, KA is equilibrium dissociation constant and nH is slope factor. Eq. 5 was fitted to data from functional experiments. Eq. 5 was fitted to data by the two-step procedure described earlier. […] In the second step, Eq. 5 with EMAX fixed to the value determined in the first step was fitted to individual experimental data sets. Relative Intrinsic Activity
(§8) Muscarinic receptors are also able to stimulate non-preferential signalling pathways.

[5] = target: M3 muscarinic receptor (Homo sapiens, UniProt P20309); assay: stimulation of cAMP, M3 CHO cells (M3Gs); set-up: host or cells: CHO cells, stably transfected
Experimental: Since activation of phospholipase C (PLC) via M2 and M4 receptors is weak, cells were transferred with G15 G-protein to facilitate coupling.
as §5, §3, §6, §7, §8

[6] = M3Gs (↑cAMP), Table 8, relative to carbachol

Sequence of M3 muscarinic receptor (P20309 whole entry): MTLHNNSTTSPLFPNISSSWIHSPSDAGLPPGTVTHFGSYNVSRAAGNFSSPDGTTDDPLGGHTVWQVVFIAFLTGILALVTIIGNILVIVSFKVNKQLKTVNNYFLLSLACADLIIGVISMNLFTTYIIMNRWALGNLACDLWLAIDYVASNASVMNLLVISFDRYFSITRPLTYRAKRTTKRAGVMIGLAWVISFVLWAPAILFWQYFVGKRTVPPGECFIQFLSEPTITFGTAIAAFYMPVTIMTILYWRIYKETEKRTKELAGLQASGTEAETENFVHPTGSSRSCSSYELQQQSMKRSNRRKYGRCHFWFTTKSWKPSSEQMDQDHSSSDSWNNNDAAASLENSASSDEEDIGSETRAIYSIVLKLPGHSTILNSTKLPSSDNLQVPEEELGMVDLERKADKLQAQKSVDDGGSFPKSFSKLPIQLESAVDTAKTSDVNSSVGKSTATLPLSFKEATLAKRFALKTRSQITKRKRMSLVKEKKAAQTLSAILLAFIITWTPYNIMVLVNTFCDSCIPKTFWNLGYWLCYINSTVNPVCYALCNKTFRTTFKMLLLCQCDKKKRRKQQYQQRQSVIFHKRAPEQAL

SMILES | accumulation of IPX [1] | forskolin-stimulated cAMP level [2] | forskolin-stimulated cAMP level [3] | increase of cAMP level ([4]; M5, micromolar concentrations, in words) | E′MAX [4] [fold increase] | τ [4] | Δlog(τ/KA) [4] | Emax of inhibition of cAMP synthesis [2] | Emax of inhibition of cAMP synthesis [3] | RAi [4] | RAi [5, 6] | EC50 [4] [µM] | Kd [4] [µM] | EC50 [5] [µM] | E′MAX [5] [fold increase] | Kd [5] [µM] | RAi [5] | Δlog(τ/KA) [5] | τ [5]
C[N+](C)(C)CCOC(N)=O [carbachol, reference compound] | profound accumulation of IPX | transient decrease in forskolin-stimulated cAMP level at nanomolar concentrations followed by an increase at micromolar concentrations; also recorded: transient decrease in forskolin-stimulated cAMP level at sub-micromolar concentrations followed by an increase at micromolar concentrations | transient decrease in forskolin-stimulated cAMP level at nanomolar concentrations followed by an increase at micromolar concentrations; also recorded: transient decrease in forskolin-stimulated cAMP level at sub-micromolar concentrations followed by an increase at micromolar concentrations | at micromolar concentrations it stimulated cAMP production; also recorded: increased cAMP level at micromolar concentrations | 1.23 ± 0.03 | 0.10 ± 0.02 | 0 | – | – | – | – | – | – | – | – | – | – | – | –
C[N+]1(Cc2cccs2)CC=CCC1.[I-] (stereo not drawn) [Compound 7A, 1-methyl-1-[(thiophen-2-yl)methyl]-1,2,3,6-tetrahydropyridin-1-ium iodide] | negligible increase in IPX | only a decrease in cAMP level | only a decrease in cAMP level | – | – | – | – | comparable to inhibition by carbachol | comparable to inhibition by carbachol | 0 | 0 | – | – | – | – | – | – | – | –
C1=CCN(Cc2cccs2)CC1.Cl [Compound 6A, 1-[(thiophen-2-yl)methyl]-1,2,3,6-tetrahydropyridin-1-ium chloride] | negligible increase in IPX | only a decrease in cAMP level | only a decrease in cAMP level | – | – | – | – | comparable to inhibition by carbachol | comparable to inhibition by carbachol | 0 | 0 | – | – | – | – | – | – | – | –
O=C1CCCN1CC#CCN1CCCC1 [oxotremorine, reference compound] | – | – | – | – | 1.22 ± 0.03 | 0.09 ± 0.02 | −0.82 ± 0.08 | – | – | 6.62 ± 0.58 | – | 3.8 | 3.98 | 2.63 | 1.9 ± 0.1 | 3.98 | 4.23 ± 0.28 | −0.63 ± 0.06 | 0.48 ± 0.05
